The source of these data is paper PMC12396409, “Screening and hit evaluation of a microbial metabolite library against the pathogenic Plasmodium falciparum and Toxoplasma gondii parasites” (International Journal for Parasitology: Drugs and Drug …, 2025).

Where two headings read alike, the source gives them in different places.

Test [1] concerns P. falciparum 3D7 parasites. In words: P. falciparum growth inhibition assay, 1-cycle (72 h treatment), SYBR DNA staining (library screen at 2 μg/mL and dose-response). In kind it is cell-based, Plasmodium falciparum. The conditions noted are these: for activity at 2 µg/mL: Plasmodium falciparum, 3D7.
The test system of test [2] is T. gondii RH strain (RH-Tub-eYFP) tachyzoites. In words: microbe, parasite or virus in culture. In kind it is cell-based, Toxoplasma gondii. The following applies: 72 h, 72 h; for percent parasite growth at 2 µg/mL: Toxoplasma gondii.
Test [3] concerns P. falciparum 3D7 parasites. Description: P. falciparum growth inhibition assay, 2-cycle (120 h treatment), delayed-death screen and dose-response. The format is cell-based, Plasmodium falciparum. The conditions noted are these: for activity at 2 µg/mL: Plasmodium falciparum, 3D7.
The mark [4] stands for this setting: library screen at 2 μg/mL, 72 h, % growth, replicate 1.
Where [5] appears, read: library screen at 2 μg/mL, 72 h, % growth, replicate 2.
Setting [6] is: library screen at 2 μg/mL, % growth, replicate 1.
Where [7] appears, read: library screen at 2 μg/mL, % growth, replicate 2.
Where [8] appears, read: library screen at 2 μg/mL, 120 h, % growth, replicate 1.
The mark [9] stands for this setting: library screen at 2 μg/mL, 120 h, % growth, replicate 2.
The mark [10] stands for this setting: P. falciparum 3D7, 72 h, library screen at 2 μg/mL, % growth, replicate 1.
[11] abbreviates: P. falciparum 3D7, 72 h, library screen at 2 μg/mL, % growth, replicate 2.
Where [12] appears, read: T. gondii RH, library screen at 2 μg/mL, % growth, replicate 1.
Setting [13] is: T. gondii RH, library screen at 2 μg/mL, % growth, replicate 2.
Where [14] appears, read: P. falciparum 3D7, 120 h, library screen at 2 μg/mL, % growth, replicate 1.
Where [15] appears, read: P. falciparum 3D7, 120 h, library screen at 2 μg/mL, % growth, replicate 2.

As for `C=CC(C)(C)[C@@]12C[C@H]3C(=O)N[C@H](CC(C)C)C(=O)N3[C@H]1N(C(C)=O)c1ccccc12` [Verrucofortine], the activity at 2 µg/mL in test [1] (P. falciparum, 72 h, screen at 2 μg/mL, replicate 1, read-out: Pf_72h_%Growth_Rep1) is 70%; in test [1] (P. falciparum, 72 h, screen at 2 μg/mL, replicate 2, read-out: Pf_72h_%Growth_Rep2), 83.7%; in test [3] (P. falciparum, 120 h, screen at 2 μg/mL, replicate 1, read-out: Pf_120h_%Growth_Rep1) it was 152%; in test [3] (P. falciparum, 120 h, screen at 2 μg/mL, replicate 2, read-out: Pf_120h_%Growth_Rep2), 81.9%. The percent parasite growth at 2 µg/mL worked out at 90.9% in test [2] (T. gondii, screen at 2 μg/mL, replicate 1, read-out: Tg_72h_%Growth_Rep1) and 99.7% in test [2] (T. gondii, screen at 2 μg/mL, replicate 2, read-out: Tg_72h_%Growth_Rep2).

Consider `CO/C1=C\C(C)=C\[C@@H](C)[C@@H](O)[C@@H](C)C/C(C)=C/C=C/[C@H](OC)[C@@H]([C@@H](C)[C@@H](O)[C@H](C)[C@@]2(O)C[C@@H](OC(=O)/C=C/C(=O)NC3=C(O)CCC3=O)[C@H](C)[C@@H](C(C)C)O2)OC1=O` [Bafilomycin B1], for which the Pf_72h_%Growth_Rep1 in test [1] (setting [4]) was 2.46%. Besides, the Pf_72h_%Growth_Rep2 in test [1] (setting [5]) was 1.87%. The Tg_72h_%Growth_Rep1 in test [2] (setting [6]) is listed as -0.95%. In addition, the Tg_72h_%Growth_Rep2 in test [2] (setting [7]) is reported as 0.68%. In test [3] (setting [8]), this molecule yielded a Pf_120h_%Growth_Rep1 of 5.87%. The Pf_120h_%Growth_Rep2 in test [3] (setting [9]) came out at 11.47%.

With `COc1oc([C@H]2C/C(=C/C(C)=C/c3ccc([N+](=O)[O-])cc3)CO2)c(C)c(=O)c1C` [Aureothin], the Pf_72h_%Growth_Rep1 in test [1] (setting [4]) is 103.52%. In test [1] (setting [5]), this molecule displayed a Pf_72h_%Growth_Rep2 of 87.70%. Moreover, the Tg_72h_%Growth_Rep1 in test [2] (setting [6]) is on record as 66.52%. Also, in test [2] (setting [7]), the Tg_72h_%Growth_Rep2 came to 65.05%. Also, the Pf_120h_%Growth_Rep1 in test [3] (setting [8]) was found to be 128.40%. Moreover, in test [3] (setting [9]), the Pf_120h_%Growth_Rep2 is 61.20%.

Consider `COC1=C(OC)C(=O)C(C)=C(C)C1=O` [Aurantiogliocladin], for which the Pf_72h_%Growth_Rep1 in test [1] (setting [4]) was determined as 5.55%. In test [1] (setting [5]), this molecule showed a Pf_72h_%Growth_Rep2 of 9.01%. The Tg_72h_%Growth_Rep1 in test [2] (setting [6]) is recorded as 92.07%. In test [2] (setting [7]), the Tg_72h_%Growth_Rep2 was found to be 99.65%. In addition, the Pf_120h_%Growth_Rep1 in test [3] (setting [8]) came to 10.46%. The Pf_120h_%Growth_Rep2 in test [3] (setting [9]) was -13.06%.

Regarding `CCCCCCCCCCCCCCCC(=O)NC1CCOC1=O` (stereo not drawn) [BIA-H1500], the Pf_72h_%Growth_Rep1 in test [1] (setting [10]) turned out to be 91.73%. The Pf_72h_%Growth_Rep2 in test [1] (setting [11]) is 78.97%. Moreover, the Tg_72h_%Growth_Rep1 in test [2] (setting [12]) is given as 108.53%. In test [2] (setting [13]), this molecule registered a Tg_72h_%Growth_Rep2 of 91.16%. The molecule also yielded a Pf_120h_%Growth_Rep1 in test [3] (setting [14]) of 95.21%. Besides, the Pf_120h_%Growth_Rep2 in test [3] (setting [15]) is listed as 120.58%.

Take `CC[C@H]1C[C@]23OC(=O)/C(=C(\O)[C@@]4(CC)[C@@H]5CC[C@H](C)[C@H](O[C@H]6C[C@H](O)[C@H](NC(=O)c7[nH]c(Cl)cc7Cl)[C@@H](C)O6)[C@H]5C=C[C@H]4C/C=C/C/C(C)=C/[C@@]2(C)C=C1C(=O)O)C3=O` [Decatromicin B]: the Pf_72h_%Growth_Rep1 in test [1] (P. falciparum, 72 h, screen at 2 μg/mL, replicate 1) came out at 89.49%. In test [1] (P. falciparum, 72 h, screen at 2 μg/mL, replicate 2), the Pf_72h_%Growth_Rep2 is on record as 90.33%. Also, the Tg_72h_%Growth_Rep1 in test [2] (T. gondii, screen at 2 μg/mL, replicate 1) turned out to be 105.42%. The molecule further yielded a Tg_72h_%Growth_Rep2 in test [2] (T. gondii, screen at 2 μg/mL, replicate 2) of 104.91%. Moreover, the Pf_120h_%Growth_Rep1 in test [3] (P. falciparum, 120 h, screen at 2 μg/mL, replicate 1) worked out at 74.87%. Further, in test [3] (P. falciparum, 120 h, screen at 2 μg/mL, replicate 2), the Pf_120h_%Growth_Rep2 was found to be 101.36%.

Turning to `CCCCCC(=O)NC1CCOC1=O` (stereo not drawn) [BIA-H1495], the Pf_72h_%Growth_Rep1 in test [1] (setting [10]) is listed as 85.11%. In test [1] (setting [11]), this molecule showed a Pf_72h_%Growth_Rep2 of 87.66%. The Tg_72h_%Growth_Rep1 in test [2] (setting [12]) amounted to 133.00%. The molecule further yielded a Tg_72h_%Growth_Rep2 in test [2] (setting [13]) of 97.80%. The molecule also came in with a Pf_120h_%Growth_Rep1 in test [3] (setting [14]) of 97.98%. Further, the Pf_120h_%Growth_Rep2 in test [3] (setting [15]) is recorded as 95.38%.
